Test results: patent US8895744B2, “Alfa-carboline inhibitors of NPM-ALK, RET, and Bcr-Abl” (Universita' Degli Studi di Milano-Bicocca, priority 2008, dated 2014)

Legend:
[1] = target: T1, Recombinant Abl T315I protein (Homo sapiens, UniProt P00519, T315I); assay: Abl T315I mutant kinase inhibitory activity, ELISA-based in vitro kinase assay; type: biochemical; conditions: purified Abl T315I, 0.3 mM ATP
T1 construct: made in house; host or cells: Sf9 cells (baculovirus)
Description: (§1) Recombinant ALK kinase was expressed in Sf9 insect cells using the pBlueBacHis2C baculovirus vector system and purified using an anion exchange Fast Flow Q-sepharose column (Amersham-Pharmacia Biotech) followed by HiTrap™-nickel affinity column (Amersham-Pharmacia Biotech). Purified ALK protein was used to screen inhibitors in the ELISA-based kinase assay. A Nunc Immuno 96 well plate was incubated overnight at 37° C. with coating solution (125 μL/well) containing ALK peptide substrate ([…]) (SEQ ID NO: 1) at various concentrations in PBS. Wells were then washed with 200 μL of wash buffer (PBS-Tween 0.05%) and left to dry for at least 2 h at 37° C. The kinase reaction was performed in the presence of 50 mM Tris pH 7.5, 5 mM MnCl2, 5 mM MgCl2, 0.3 mM ATP and purified rALK in a total volume of 100 μL/well at 30° C. for 15 min. For inhibitor testing the reaction mix was preincubated with the inhibitor or solvent control for 10 min at room temperature before transferring to the ELISA plate. After the reaction wells were washed 5 times with 200 μL of wash buffer. Phosphorylated peptide was detected using 100 μL/well of a mouse monoclonal anti-phosphotyrosine antibody (clone 4G10 Upstate Biotech Ltd) diluted 1:2000 in PBS+4% BSA. After 30 min incubation at room temperature the antibody was removed and wells were washed as described above. 100 μL of a secondary antibody (anti-mouse IgG, Horseradish Peroxidase linked whole antibody, Amersham Pharmacia Biotech) diluted 1:1000 in PBS+4% BSA was added to each well and the plate was incubated again for 30 min at room temperature before washing as above. The plate was developed using 100 μL/well TMB Substrate Solution (Endogen) and the reaction was stopped by adding an equiv.ual volume of H2SO4 0.36 M. Finally, the absorbance was read at 450 nm using an Ultrospec® 300 spectrophotometer (Amersham-Pharmacia Biotech). The concentration of the test solution showing 50% inhibition as compared with the control was expressed as IC50 (μM).
37. Abl T315I Mutant Kinase Inhibitory Activity
(§2) Method: ELISA-Based In Vitro Kinase Assay
(§3) Recombinant Abl T315I protein was expressed in Sf9 cells using the pBlueBacHis2C baculovirus expression vector. Abl T315I was purified using an anion exchange Fast Flow Q-sepharose column (Amersham-Pharmacia Biotech) followed by HiTrap™-nickel affinity column (Amersham-Pharmacia Biotech). Purified Abl T315I was used in the ELISA-based kinase assay to screen inhibitors as described above. The kinase reaction was performed in the presence of 50 mM Tris pH 7.5, 1 mM MnCl2, 5 mM MgCl2, 0.3 mM ATP, peptide substrate ([…]) (SEQ ID NO: 1) and purified Abl T315I. The concentration of the test solution showing 50% inhibition as compared with the control was expressed as IC50 (μM).

Recombinant ALK kinase = target: T2, Recombinant ALK kinase (Homo sapiens, UniProt Q9UM73); assay: ALK kinase inhibitory activity, ELISA-based in vitro kinase assay; type: biochemical; conditions: purified rALK, 0.3 mM ATP, read-out: ALK IC50
T2 construct: made in house; host or cells: Sf9 insect cells (baculovirus)
T2 sequence (Q9UM73 19-1620): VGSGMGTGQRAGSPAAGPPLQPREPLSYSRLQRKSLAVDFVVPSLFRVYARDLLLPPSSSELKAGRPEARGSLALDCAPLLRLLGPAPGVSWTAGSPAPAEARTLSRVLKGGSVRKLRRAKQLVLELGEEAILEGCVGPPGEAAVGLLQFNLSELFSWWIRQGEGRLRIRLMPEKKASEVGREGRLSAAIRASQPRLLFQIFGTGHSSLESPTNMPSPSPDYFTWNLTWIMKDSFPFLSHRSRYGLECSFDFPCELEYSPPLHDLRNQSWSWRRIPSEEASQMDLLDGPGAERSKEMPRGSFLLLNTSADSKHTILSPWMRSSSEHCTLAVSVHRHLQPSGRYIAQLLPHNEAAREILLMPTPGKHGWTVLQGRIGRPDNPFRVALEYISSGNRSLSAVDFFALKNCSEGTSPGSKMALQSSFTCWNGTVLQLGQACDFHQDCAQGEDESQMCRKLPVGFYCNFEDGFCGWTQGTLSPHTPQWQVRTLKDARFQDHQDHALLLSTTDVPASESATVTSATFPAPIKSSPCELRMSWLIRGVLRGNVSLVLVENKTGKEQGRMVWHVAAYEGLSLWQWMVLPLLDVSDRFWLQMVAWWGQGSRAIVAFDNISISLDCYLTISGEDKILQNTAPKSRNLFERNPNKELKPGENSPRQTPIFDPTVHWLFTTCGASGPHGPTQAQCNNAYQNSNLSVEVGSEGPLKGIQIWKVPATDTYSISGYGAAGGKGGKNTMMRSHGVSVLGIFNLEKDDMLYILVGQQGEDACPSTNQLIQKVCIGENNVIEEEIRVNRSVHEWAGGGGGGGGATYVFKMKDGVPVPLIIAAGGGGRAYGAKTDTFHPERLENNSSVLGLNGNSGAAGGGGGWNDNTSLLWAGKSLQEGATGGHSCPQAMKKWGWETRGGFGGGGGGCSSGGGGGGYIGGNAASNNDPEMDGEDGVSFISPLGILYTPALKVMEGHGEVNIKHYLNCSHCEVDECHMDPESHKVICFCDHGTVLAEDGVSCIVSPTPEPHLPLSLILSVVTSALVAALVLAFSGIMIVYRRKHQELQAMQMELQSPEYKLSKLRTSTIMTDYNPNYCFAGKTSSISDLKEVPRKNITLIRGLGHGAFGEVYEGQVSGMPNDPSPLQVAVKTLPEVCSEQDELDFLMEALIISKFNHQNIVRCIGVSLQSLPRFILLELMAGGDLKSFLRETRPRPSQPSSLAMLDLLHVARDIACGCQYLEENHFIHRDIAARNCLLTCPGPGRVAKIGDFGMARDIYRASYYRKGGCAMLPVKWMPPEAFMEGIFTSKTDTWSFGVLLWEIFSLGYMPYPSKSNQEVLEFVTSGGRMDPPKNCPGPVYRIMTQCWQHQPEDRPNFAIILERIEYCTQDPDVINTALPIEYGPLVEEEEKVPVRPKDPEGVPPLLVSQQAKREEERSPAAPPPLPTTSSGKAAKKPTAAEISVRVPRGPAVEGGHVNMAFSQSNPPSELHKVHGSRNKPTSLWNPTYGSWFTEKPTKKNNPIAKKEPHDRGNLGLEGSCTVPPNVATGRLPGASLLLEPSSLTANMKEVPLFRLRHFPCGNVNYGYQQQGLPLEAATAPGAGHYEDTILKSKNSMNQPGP
Description: 36. Alk Kinase Inhibitory Activity
as §2, §1

Recombinant Ret protein = target: T3, Recombinant Ret protein (Homo sapiens, UniProt P07949); assay: RET kinase inhibitory activity, ELISA-based in vitro kinase assay; type: biochemical; conditions: purified Ret, 0.3 mM ATP
T3 construct: made in house; host or cells: Sf9 cells (baculovirus)
T3 sequence (P07949 29-1114): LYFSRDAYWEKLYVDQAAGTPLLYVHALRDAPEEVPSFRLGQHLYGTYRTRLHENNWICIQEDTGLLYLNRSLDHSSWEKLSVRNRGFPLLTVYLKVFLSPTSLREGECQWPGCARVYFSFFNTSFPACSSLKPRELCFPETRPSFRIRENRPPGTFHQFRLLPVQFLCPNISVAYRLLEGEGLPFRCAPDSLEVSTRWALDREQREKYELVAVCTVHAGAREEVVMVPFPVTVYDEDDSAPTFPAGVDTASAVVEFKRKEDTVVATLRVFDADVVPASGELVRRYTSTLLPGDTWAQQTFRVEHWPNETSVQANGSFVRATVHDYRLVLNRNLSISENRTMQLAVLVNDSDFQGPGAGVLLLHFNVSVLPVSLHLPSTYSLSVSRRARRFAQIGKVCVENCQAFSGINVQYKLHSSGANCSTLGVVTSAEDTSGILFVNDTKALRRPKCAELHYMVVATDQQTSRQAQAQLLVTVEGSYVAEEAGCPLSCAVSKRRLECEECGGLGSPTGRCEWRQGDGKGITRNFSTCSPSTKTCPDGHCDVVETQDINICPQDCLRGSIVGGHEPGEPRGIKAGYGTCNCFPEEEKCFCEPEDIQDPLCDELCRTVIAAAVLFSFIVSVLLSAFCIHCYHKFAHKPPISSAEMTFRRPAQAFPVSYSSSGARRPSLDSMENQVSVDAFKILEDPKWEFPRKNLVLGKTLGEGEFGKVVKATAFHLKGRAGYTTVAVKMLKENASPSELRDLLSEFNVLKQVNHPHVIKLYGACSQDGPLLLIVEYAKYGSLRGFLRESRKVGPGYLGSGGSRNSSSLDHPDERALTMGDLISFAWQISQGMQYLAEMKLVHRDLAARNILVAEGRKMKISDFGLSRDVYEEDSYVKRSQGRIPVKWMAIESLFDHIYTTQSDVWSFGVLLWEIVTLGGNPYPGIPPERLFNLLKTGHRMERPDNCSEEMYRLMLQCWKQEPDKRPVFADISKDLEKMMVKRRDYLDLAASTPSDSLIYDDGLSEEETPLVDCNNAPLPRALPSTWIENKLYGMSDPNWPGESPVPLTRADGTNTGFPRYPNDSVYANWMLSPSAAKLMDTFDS
Description: as §1
38. RET Kinase Inhibitory Activity
as §2
as §3, with “Ret” for “Abl T315I”, “Ret.” for “Abl T315I.”

[2] = test system: parent untransformed BaF3 cells; assay: Tritiated thymidine uptake cell proliferation assay, parental BaF3 (control); type: cell-based; conditions: Mus musculus, 3[H]-thymidine uptake, 72 h, medium with IL-3, read-out: BaF parental IC50
Description: (§4) Method: Tritiated Thymidine Uptake Cell Proliferation Assay
(§5) The following procedure was used with parent untransformed BaF3 cells, BaF3 cells transformed with the oncogenic fusion protein NPM/ALK, NPM/ALK positive SUDHL-1 cells, ALK-negative U937 cells, NPM/ALK positive KARPAS-299 cells. The parent untransformed BaF3 cells and Alk-negative U937 cells are used as controls. Cells were seeded in U-bottomed 96-well plates at 10 000 cells/well in a volume of 100 μL in supplemented medium. In the case of the parent untransformed BaF3 cells, the medium was supplemented with IL-3. Serial dilutions of inhibitors were added to the appropriate wells and volumes adjusted to 200 μL. Controls were treated with the equivalent volume of vehicle, DMSO, alone. Plates were incubated at 37° C. for 72 h. ^3[H]-thymidine (1 μCi/well) was added for the last 16 h of incubation. Cells were harvested on to paper filters and ^3[H]-thymidine incorporation was measured using a β scintillation counter (1430 MicroBeta, Wallac, Turku, Finland). The 50% inhibitory concentration (IC50) was defined as the concentration of inhibitor, expressed in micromolar, that gave a 50% decrease in ^3[H]-thymidine uptake compared with controls.
as §5, with “protein bcr-abl, Abl-negative” for “protein NPM/ALK, NPM/ALK positive SUDHL-1 cells, ALK-negative”, “cells, or Bcr-abl” for “cells, NPM/ALK”, “positive LAMA-84” for “positive KARPAS-299”, “and Abl-negative” for “and Alk-negative”, “in ^3H-thymidine” for “in ^3[H]-thymidine”
as §5, with “RET-PTC2, or RET-negative 11937” for “NPM/ALK, NPM/ALK positive SUDHL-1 cells, ALK-negative U937 cells, NPM/ALK positive KARPAS-299”, “RET-negative” for “Alk-negative”

[3] = test system: NPM/ALK positive SUDHL-1 cells; assay: Tritiated thymidine uptake cell proliferation assay, SUDHL-1; type: cell-based; conditions: 3[H]-thymidine uptake, 72 h
Description: (§6) Inhibition of the proliferation of NPM/ALK positive cells
as §4, §5

[4] = target: T4, BaF3 cells transformed with the oncogenic fusion protein NPM/ALK (Homo sapiens, UniProt Q9UM73); assay: Tritiated thymidine uptake cell proliferation assay, BaF3 NPM/ALK; type: cell-based; conditions: 3[H]-thymidine uptake, 72 h; read-out: BaF NPM/ALK IC50
T4 construct: fused on or other part: P06748 (Nucleophosmin)
T4 sequence (Q9UM73 whole entry, change not shown, the tested form may be a part): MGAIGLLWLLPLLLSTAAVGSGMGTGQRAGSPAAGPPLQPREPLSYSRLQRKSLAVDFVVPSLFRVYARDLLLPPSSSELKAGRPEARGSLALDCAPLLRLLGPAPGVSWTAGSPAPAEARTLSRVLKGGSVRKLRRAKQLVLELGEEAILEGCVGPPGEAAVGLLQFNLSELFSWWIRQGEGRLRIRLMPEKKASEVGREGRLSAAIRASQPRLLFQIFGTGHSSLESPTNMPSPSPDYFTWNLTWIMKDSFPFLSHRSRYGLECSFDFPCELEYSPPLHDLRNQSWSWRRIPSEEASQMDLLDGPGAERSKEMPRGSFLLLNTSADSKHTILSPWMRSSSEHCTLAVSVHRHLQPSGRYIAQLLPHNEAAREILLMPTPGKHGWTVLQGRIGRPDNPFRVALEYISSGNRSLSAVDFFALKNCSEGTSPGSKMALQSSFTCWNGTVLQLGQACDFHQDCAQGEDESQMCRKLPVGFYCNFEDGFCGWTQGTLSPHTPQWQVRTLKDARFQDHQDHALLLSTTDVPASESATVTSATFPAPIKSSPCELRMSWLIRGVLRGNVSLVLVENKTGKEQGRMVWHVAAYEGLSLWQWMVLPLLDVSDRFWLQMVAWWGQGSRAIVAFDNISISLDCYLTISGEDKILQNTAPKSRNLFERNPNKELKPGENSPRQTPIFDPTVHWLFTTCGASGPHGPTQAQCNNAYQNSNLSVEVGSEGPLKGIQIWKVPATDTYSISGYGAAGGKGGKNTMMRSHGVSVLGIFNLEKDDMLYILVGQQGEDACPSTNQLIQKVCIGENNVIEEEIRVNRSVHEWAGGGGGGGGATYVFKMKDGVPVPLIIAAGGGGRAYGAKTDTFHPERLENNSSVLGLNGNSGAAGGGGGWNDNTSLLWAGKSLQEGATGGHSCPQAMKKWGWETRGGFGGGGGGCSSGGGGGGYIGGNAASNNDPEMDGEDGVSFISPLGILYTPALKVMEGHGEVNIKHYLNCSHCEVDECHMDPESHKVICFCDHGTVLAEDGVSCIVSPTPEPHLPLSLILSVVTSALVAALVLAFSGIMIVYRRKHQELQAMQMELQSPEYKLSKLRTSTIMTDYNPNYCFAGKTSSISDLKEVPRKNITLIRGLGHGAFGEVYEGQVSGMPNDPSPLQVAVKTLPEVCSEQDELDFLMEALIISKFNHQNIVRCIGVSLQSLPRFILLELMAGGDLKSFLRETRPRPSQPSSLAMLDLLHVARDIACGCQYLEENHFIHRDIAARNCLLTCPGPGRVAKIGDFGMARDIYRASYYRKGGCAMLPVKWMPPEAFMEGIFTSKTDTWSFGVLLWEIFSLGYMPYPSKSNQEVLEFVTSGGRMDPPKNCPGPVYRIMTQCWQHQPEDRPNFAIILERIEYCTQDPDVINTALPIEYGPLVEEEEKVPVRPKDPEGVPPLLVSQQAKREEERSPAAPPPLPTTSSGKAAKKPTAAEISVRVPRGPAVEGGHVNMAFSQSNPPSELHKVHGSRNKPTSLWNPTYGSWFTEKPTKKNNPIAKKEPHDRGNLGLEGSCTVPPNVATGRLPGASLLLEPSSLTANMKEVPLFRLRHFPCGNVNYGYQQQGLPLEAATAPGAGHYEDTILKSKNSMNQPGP
Description: as §6, §4, §5

SMILES	IC50 [1] [µM]	IC50 (Recombinant ALK kinase) [µM]	IC50 (Recombinant Ret protein) [µM]	IC50 [2] [µM]	IC50 [3] [µM]	GI50 [4] [µM]	melting point [°C]
O=c1[nH]c(-c2ccc3[nH]c4ncccc4c3c2)cs1 [R221, 4-(9H-pyrido[2,3-b]indol-6-yl)thiazol-2(3H)-one]	53 ± 16	19 ± 1.8	82 ± 3.2	–	–	–	–
O=Cc1ccc2[nH]c3ncc(Cl)cc3c2c1 [R267]	20 ± 0.67	–	34 ± 27	17	9.4	–	–
O=C(CSc1ccccn1)c1ccc2[nH]c3ncc(Cl)cc3c2c1 [R272, 1-(3-Chloro-9H-pyrido[2,3-b]indol-6-yl)-2-(pyridin-2-ylsulfanyl)ethanone]	41	–	19	2	> 25	2.5	–
O=C(CSc1nc2ccccc2s1)c1ccc2[nH]c3ncc(Cl)cc3c2c1 [R273, 2-(Benzothiazol-2-ylsulfanyl)-1-(3-chloro-9H-pyrido[2,3-b]indol-6-yl)ethanone]	4.4	–	2	14	> 25	19	–
O=C(CSc1nc2ccccc2[nH]1)c1ccc2[nH]c3ncc(Cl)cc3c2c1 [R274, 2-(1H-Benzoimidazol-2-ylsulfanyl)-1-(3-chloro-9H-pyrido[2,3-b]indol-6-yl)ethanone]	19	–	14	0.9	0.6	1	–
Oc1cnc2[nH]c3ccc(CCc4ccccc4)cc3c2c1 [R276]	–	0.5 ± 0.1	1	> 25	–	> 25	–
O=C(CSc1cccc(Br)c1)c1ccc2[nH]c3ncc(Cl)cc3c2c1 [R279, 2-(3-Bromophenylsulfanyl)-1-(3-chloro-9H-pyrido[2,3-b]indol-6-yl)ethanone]	> 100	–	3.6	> 50	–	> 50	–
O=C(CSCCOc1ccccc1)c1ccc2[nH]c3ncc(Cl)cc3c2c1 [R280, 1-(3-Chloro-9H-pyrido[2,3-b]indol-6-yl)-2-(2-phenoxyethylsulfanyl)ethanone]	33	–	3.6	37	–	> 50	–
O=C(CSC1=NCCS1)c1ccc2[nH]c3ncc(Cl)cc3c2c1 [R282, 1-(3-chloro-9H-pyrido[2,3-b]indol-6-yl)-2-(4,5-dihydrothiazol-2-ylsulfanyl)éthanone]	36	–	9.5	32	0.7	14	–
CCN(CC)CCSCC(=O)c1ccc2[nH]c3ncc(Cl)cc3c2c1 [R283, 1-(3-Chloro-9H-pyrido[2,3-b]indol-6-yl)-2-(N,N-diethylaminoethylsulfanyl)ethanone]	48	–	5.7	3.6 ± 1.8	0.2 ± 0.02	0.5 ± 0.2	–
CN(C)CCSCC(=O)c1ccc2[nH]c3ncc(Cl)cc3c2c1 [R284, 1-(3-Chloro-9H-pyrido[2,3-b]indol-6-yl)-2-(2,2-dimethylaminoethylsulfanyl)ethanone]	> 100	36 ± 14	41	–	–	–	–
C(=C\c1ccc2c(n1)[nH]c1ccccc12)/c1ccccc1 [R300, 2-(2′-phenylethenyl)-9H-pyrido[2,3-b]indole]	> 100	–	4.8	> 100	> 100	80	–
C(=C\c1cnc2[nH]c3ccc(-c4ccc(N5CCOCC5)cn4)cc3c2c1)/c1ccccc1 [R307, 6-(5-morpholin-4-yl-pyridin-2-yl)-3-(2′-phenylethenyl)-9H-pyrido[2,3-b]indole]	3.1 ± 0.1	0.5 ± 0.1	> 100	> 100	–	40	–
COc1ccc(-c2ccnc3[nH]c4ccccc4c23)cc1 [R309, 4-(4-methoxyphenyl)-9H-pyrido[2,3-b]indole]	1.6	4 ± 0.2	–	15	–	25	208 to 210
c1coc(-c2ccc3c(n2)[nH]c2ccccc23)c1 [R326, 2-(furan-2-yl)-9H-pyrido[2,3-b]indole]	–	–	–	8.8	–	19	208 to 210
c1coc(-c2ccnc3[nH]c4ccccc4c23)c1 [R327, 4-(furan-2-yl)-9H-pyrido[2,3-b]indole]	–	–	–	> 100	–	26	> 220
O=[N+]([O-])c1cccc(-c2ccnc3[nH]c4ccccc4c23)c1 [R331, 4-(3-nitrophenyl)-9H-pyrido[2,3-b]indole]	–	> 100	–	> 100	–	40	> 220
